According to ChEMBL document CHEMBL1201862, “PubChem BioAssay data set” (2004):
Calls of active or inactive are those of the source.

Experiments:
Prothrombin = Prothrombin (Homo sapiens, UniProt P00734); assay: Thrombin 1536 HTS Dose Response Confirmation. [Related pubchem assays: 1046 (Thrombin 1536 HTS; hits were confirmed in this assay)]; format: functional
[1] = HEp-2 cell cytotoxicity, dose response, cytotoxicity control for RSV inhibitor project, HTS (AID 2410); format: functional; conditions: human respiratory syncytial virus
[2] = molecular target: T1, Heat shock factor protein 1 (Mus musculus, UniProt P38532); assay: HSF1 potentiators in luciferase reporter cells, confirmation, cell-based, NIH3T3, luminescence, dose retest (AID 435004); format: functional;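 note: stress induced by proteasome inhibitor MG132 added 30 min after compound; luciferase reporter driven by HSF1 response element in NIH3T3 cells; actives raise luminescence as potentiators of the MG132 stress response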
T1 sequence (P38532 whole entry): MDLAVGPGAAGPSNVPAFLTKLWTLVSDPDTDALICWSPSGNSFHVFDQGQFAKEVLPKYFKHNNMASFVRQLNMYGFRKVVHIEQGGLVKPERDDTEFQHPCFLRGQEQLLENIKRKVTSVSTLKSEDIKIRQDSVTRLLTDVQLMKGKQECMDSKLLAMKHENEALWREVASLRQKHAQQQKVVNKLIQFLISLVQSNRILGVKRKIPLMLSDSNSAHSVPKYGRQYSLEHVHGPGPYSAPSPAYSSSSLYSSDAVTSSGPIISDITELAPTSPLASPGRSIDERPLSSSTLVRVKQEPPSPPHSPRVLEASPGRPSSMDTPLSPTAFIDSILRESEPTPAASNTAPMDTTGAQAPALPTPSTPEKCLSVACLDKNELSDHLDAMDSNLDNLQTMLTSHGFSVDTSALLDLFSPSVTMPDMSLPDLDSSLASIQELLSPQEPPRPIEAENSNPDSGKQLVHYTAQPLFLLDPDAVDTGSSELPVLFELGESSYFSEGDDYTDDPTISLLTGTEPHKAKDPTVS

cells [3] = assay: cells
[4] = molecular target: T1, Heat shock factor protein 1; assay: inhibition of MG132-induced HSE-luciferase signal, confirmation, cell-based, NIH3T3, luminescence, dose retest (AID 2382); format: functional;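 note: NIH3T3 fibroblasts with HSF1-driven luciferase reporter stressed by proteasome inhibitor MG132; luminescence from HSF1-driven luciferase expression after 8 hours of MG132 stress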
[5] = THP-1 cell cytotoxicity, dose response, cytotoxicity control for Vif-APOBEC3G degradation inhibitor project, THP-1 cells (AID 1117359); format: functional; conditions: Human immunodeficiency virus 1, THP-1
Vero [6] = assay: cells; format: functional, cell-based; conditions: Chlorocebus sabaeus
Vero [7] = assay: cells; format: functional; conditions: Chlorocebus sabaeus
[8] = growth suppression of PTEN-null colon cells, dose response, cell-based, HCT116 PTEN knockout (AID 1047); format: functional;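 note: HCT116 colon tumor cells with PTEN knocked out; cells exposed to compound for 60 hours before readout; potency for loss of cell viability measured by luminescence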
[9] = growth suppression of beta-catenin-knockout colon cells, dose response, cell-based, HCT116, human colon tumor (AID 1045); format: functional;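 note: HCT116 colon tumor cells with beta catenin knocked out; cells exposed to compound for 60 hours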
[10] = Luminescence Cell-Based Dose Retest to Confirm Inhibitors of Cancer Stem Cells. [Related pubchem assays (depositor defined):AID2717, AID2721]; format: functional; conditions: Homo sapiens
INS1 = assay: beta cell apoptosis inhibitors, cytokine rescue, dose response, luminescence, retest (AID 449756); format: functional, cell-based; conditions: Rattus norvegicus;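 note: cell death triggered by IL-1 beta plus TNF-alpha plus IFN-gamma mixture; protective hits raise ATP signal compared with cytokine alone wells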
[11] = molecular target: T2, Replicative DNA helicase DnaB (Mycobacterium tuberculosis, UniProt P9WMR3); assay: DnaB intein splicing inhibitors, dose response, biochemical, cell-free fluorescence (AID 449749); format: functional
T2 sequence (P9WMR3 whole entry): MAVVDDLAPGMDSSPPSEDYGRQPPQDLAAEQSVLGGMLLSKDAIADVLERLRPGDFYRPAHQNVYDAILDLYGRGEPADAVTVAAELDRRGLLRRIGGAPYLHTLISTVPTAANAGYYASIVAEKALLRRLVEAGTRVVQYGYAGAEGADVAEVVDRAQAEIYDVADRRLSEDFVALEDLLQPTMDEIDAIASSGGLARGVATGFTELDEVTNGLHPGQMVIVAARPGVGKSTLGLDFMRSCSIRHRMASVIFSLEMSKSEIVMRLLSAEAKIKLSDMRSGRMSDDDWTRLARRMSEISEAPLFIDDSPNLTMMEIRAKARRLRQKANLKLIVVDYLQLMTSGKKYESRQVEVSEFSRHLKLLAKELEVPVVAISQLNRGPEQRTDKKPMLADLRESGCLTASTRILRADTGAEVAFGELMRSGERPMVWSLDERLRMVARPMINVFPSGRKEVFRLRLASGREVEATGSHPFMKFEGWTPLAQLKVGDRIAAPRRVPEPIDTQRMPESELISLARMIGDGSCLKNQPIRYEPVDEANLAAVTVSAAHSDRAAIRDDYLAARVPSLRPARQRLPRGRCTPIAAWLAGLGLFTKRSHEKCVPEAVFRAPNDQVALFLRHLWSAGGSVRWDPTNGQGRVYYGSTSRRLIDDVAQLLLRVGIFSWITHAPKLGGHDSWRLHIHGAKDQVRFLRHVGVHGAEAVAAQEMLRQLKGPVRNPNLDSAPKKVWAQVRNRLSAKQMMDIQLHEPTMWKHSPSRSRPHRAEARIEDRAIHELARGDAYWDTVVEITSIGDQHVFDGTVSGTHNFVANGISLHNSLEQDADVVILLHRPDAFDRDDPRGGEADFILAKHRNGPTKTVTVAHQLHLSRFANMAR

Protein RecA = molecular target: T3, Protein RecA (Mycobacterium tuberculosis, UniProt P9WHJ3); assay: Fluorescence Cell-Free Homogeneous Dose Retest to Identify Inhibitors of RecA-Intein Splicing Activity. [Related pubchem assays (depositor defined):AID2097, AID2223, AID489010, AID492950]; format: functional
T3 sequence (P9WHJ3 whole entry): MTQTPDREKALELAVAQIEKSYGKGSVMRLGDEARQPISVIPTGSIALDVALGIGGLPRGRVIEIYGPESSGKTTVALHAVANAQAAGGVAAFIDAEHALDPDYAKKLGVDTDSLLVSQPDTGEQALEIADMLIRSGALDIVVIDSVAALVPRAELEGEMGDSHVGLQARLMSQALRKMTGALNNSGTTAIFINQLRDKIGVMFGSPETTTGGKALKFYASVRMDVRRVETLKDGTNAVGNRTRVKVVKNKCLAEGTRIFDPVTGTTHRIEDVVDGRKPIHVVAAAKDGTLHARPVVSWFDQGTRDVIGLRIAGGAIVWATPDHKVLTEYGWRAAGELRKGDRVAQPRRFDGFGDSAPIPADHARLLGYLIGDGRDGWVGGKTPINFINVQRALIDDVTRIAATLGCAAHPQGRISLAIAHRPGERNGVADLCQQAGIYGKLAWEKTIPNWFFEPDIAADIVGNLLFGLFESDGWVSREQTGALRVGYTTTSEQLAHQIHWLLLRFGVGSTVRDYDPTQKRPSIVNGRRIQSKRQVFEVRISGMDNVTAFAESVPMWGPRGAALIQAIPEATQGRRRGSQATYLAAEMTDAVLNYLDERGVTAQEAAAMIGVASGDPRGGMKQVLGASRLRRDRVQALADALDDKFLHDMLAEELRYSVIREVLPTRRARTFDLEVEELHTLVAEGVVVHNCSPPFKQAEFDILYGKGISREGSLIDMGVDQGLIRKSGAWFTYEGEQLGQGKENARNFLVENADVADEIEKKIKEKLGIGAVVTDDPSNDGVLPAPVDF

[12] = molecular target: FAD-linked sulfhydryl oxidase ALR (Homo sapiens, UniProt P55789); assay: inhibitors of human ALR sulfhydryl oxidase, dose response, biochemical, H2O2 detection, luminescence, cherry-pick (AID 493248)
FAD-linked sulfhydryl oxidase ALR, sequence (P55789 whole entry): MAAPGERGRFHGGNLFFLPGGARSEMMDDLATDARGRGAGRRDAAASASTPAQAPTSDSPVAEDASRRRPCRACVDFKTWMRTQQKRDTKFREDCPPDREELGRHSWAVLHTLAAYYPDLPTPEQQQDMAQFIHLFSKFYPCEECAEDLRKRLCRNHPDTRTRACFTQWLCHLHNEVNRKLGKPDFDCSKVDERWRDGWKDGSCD

Caspase-6 = molecular target: T4, Caspase-6 (Homo sapiens, UniProt P55212); assay: human caspase-6 inhibitors, dose response, biochemical, VEID-R110 fluorescence, cherry-pick (AID 720632)
T4 sequence (P55212 whole entry): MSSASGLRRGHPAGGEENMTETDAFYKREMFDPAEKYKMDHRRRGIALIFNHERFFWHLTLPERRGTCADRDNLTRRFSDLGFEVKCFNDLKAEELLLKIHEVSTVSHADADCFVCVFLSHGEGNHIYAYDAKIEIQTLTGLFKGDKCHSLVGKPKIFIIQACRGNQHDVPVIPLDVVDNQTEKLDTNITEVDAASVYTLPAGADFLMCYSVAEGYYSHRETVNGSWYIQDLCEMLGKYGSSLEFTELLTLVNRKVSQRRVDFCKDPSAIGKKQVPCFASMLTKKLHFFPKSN

[13] = molecular target: T5, Histone-lysine N-methyltransferase NSD2 (Homo sapiens, UniProt O96028); format: biochemical
T5 sequence (O96028 whole entry): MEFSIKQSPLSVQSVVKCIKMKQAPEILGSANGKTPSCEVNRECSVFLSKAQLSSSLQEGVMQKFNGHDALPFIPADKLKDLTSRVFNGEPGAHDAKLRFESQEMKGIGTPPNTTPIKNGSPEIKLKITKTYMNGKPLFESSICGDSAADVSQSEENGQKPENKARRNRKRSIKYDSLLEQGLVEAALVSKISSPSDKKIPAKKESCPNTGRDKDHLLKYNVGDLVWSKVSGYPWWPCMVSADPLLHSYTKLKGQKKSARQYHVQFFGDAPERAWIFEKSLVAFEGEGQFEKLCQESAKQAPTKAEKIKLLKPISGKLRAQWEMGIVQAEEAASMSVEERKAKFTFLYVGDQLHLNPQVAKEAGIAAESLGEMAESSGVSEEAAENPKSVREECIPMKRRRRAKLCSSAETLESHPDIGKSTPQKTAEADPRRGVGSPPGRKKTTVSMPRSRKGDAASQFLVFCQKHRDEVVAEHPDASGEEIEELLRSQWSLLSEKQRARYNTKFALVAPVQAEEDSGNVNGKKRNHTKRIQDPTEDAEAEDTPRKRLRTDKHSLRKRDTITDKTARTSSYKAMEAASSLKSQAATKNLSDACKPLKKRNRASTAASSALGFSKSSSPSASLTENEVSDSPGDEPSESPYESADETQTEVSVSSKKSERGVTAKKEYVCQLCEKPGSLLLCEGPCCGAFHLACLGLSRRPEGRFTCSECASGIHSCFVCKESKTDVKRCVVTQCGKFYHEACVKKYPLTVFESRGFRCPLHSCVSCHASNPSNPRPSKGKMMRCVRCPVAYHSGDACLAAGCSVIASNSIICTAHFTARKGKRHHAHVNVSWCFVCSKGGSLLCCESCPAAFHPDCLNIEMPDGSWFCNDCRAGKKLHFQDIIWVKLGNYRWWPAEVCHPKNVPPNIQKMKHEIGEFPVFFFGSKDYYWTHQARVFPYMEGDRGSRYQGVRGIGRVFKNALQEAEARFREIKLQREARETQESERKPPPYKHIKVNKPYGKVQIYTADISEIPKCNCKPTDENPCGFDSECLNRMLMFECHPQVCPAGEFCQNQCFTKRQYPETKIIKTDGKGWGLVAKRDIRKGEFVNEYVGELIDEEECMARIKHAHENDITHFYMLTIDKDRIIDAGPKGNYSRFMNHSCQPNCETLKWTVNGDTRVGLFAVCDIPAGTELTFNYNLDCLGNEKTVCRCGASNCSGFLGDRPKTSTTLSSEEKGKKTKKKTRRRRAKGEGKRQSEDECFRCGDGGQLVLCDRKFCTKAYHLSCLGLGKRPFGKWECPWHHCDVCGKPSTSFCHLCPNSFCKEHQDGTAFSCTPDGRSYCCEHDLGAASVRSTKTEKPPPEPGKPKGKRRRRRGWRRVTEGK

Estrogen receptor beta = Estrogen receptor beta (Homo sapiens, UniProt Q92731);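 note: recombinant ER-beta bound to coactivator SRC1 peptide in presence of estradiol agonist; inhibitors block coactivator peptide binding and lower the FRET signal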
Estrogen receptor beta, sequence (Q92731 whole entry): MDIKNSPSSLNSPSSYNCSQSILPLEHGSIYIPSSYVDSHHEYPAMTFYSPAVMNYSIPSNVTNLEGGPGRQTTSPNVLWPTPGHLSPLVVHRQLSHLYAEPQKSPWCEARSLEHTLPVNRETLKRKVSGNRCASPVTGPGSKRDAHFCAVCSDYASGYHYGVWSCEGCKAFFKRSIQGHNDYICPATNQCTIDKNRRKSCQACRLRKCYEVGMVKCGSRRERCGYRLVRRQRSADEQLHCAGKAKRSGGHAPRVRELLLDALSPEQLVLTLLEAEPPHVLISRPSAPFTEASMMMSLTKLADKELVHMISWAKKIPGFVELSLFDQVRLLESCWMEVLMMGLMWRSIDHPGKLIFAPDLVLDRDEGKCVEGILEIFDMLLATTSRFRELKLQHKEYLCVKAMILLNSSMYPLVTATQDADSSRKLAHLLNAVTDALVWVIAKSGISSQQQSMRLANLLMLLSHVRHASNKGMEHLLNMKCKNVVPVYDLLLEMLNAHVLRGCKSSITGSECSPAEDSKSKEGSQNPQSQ

[14] = inhibitors of intracellular T. cruzi replication, confirmation, NIH3T3 host cells, beta-gal luminescence (AID 2044); format: functional, cell-based;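 note: intracellular parasites grown in NIH/3T3 mouse fibroblasts as host cells; luminescent beta-galactosidase reporter signal from transgenic T. cruzi replicating inside host cells; inhibitors lower the luminescence signal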
[15] = cytotoxicity toward NIH3T3 fibroblasts, dose response, counter-screen, cell-based, ATP luminescence, mouse fibroblasts (AID 2010); format: functional;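 note: cells exposed to compound for about 90 hours before reading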
cells [16] = assay: cells; remark: listed apart in the source
Paired box protein Pax-8 = Paired box protein Pax-8 (Homo sapiens, UniProt Q06710); assay: inhibitors of PAX8-driven TPO luciferase reporter, dose response, RMG-I cells, cherry-pick (AID 687027); format: functional, cell-based;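 note: luciferase reporter driven by Pax8 target thyroperoxidase promoter measured by SteadyGlo luminescence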
Paired box protein Pax-8, sequence (Q06710 whole entry): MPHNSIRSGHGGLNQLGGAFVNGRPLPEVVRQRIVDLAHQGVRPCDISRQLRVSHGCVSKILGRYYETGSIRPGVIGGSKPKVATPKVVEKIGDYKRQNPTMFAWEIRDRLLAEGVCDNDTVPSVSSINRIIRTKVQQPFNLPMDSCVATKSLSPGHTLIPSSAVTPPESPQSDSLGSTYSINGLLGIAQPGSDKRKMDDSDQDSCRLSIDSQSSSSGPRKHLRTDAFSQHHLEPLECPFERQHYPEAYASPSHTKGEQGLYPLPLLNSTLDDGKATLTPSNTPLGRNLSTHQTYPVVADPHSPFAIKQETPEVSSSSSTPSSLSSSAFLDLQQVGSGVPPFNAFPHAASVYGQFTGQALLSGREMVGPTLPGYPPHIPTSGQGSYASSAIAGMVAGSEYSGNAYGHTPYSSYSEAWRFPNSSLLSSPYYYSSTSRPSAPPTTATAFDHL

[17] = NIH:OVCAR-3 ovarian cancer cell cytotoxicity, dose response, PAX8 inhibitor project, plate reader, dry powder samples (AID 743044); format: functional, cell-based

Structure (SMILES): COc1ccccc1N=C(S)N(Cc1ccco1)Cc1cc2cc(C)ccc2nc1O
- IC50 (Prothrombin): > 50 µM (not active)

Structure (SMILES): CC(C)NC(=O)CSc1nc(-c2ccccc2)cs1
- IC50 (Prothrombin): > 50 µM (not active)

Structure (SMILES): Cc1ccc(N(CCCCN2C(=O)c3ccccc3C2=O)C(=O)c2cccc([N+](=O)[O-])c2)cc1
- CC50 [1]: > 50 µM (active)
- EC50 [2]: 33.2 µM (active)
- IC50 (cells [3]): 15.8 µM (active)

Structure (SMILES): CCOc1ccccc1NC(=O)Cn1c(-c2ccc(Cl)cc2)noc1=O
- EC50 [4]: > 195 µM (not active)
- CC50 [5]: > 40 µM (active)

Structure (SMILES): CCCc1c(NC(=O)Nc2ccc(F)cc2)cnn1-c1ccccc1
- CC50 [1]: 21.3 µM (active)
- IC50 (Vero [6]): 2.12 µM (active)
- CC50 (Vero [7]): > 25 µM (active)
- IC50 (cells [3]): 4.51 µM (active)

Structure (SMILES): O=C(/C=C/c1ccc(Cl)cc1)c1cccnc1
- EC50 [8]: 1.75 µM (active)
- EC50 [9]: 0.793 µM (active)

Structure (SMILES): O=C(NCc1cccnc1)/C(=C/c1ccc(-c2cccc(Cl)c2)o1)S(=O)(=O)c1ccccc1
- EC50 [8]: 2.02 µM (active)
- EC50 [9]: 2.02 µM (active)
- AC50 [10]: 1.73 µM (active)
- AC50 (INS1): 6.06 µM (active)

Structure (SMILES): CNC(=O)/C(C#N)=C/c1c(N(Cc2ccccc2)Cc2ccccc2)nc2c(C)cccn2c1=O
- CC50 [1]: 10.1 µM (active)
- AC50 [11]: > 120 µM (inactive)
- EC50 (Protein RecA): 104 µM (active)
- IC50 (cells [3]): 11.3 µM (active)

Structure (SMILES): CCc1ccc(NC2CC(=O)N(c3ccc(OC)cc3OC)C2=O)cc1 (stereo not drawn)
- IC50 (Prothrombin): > 50 µM (not active)

Structure (SMILES): CCc1ccc2cccc3c2c1N=CN3C
- AC50 [12]: 0.24 µM (active)
- AC50 (Caspase-6): 6.79 µM (active)
- AC50 [13]: 7.21 µM (active)

Structure (SMILES): Cn1nc(CC(=O)Nc2ncc(Br)s2)c2ccccc2c1=O
- IC50 (Estrogen receptor beta): > 50 µM (not active)

Structure (SMILES): C=C(C)C1CC=C(CN2CCN(Cc3ccccc3)CC2)CC1 (stereo not drawn)
- EC50 [14]: < 0.1 µM (active)
- EC50 [15]: > 60 µM (not active)
- EC50 (cells [16]): 0.189 µM (active)

Structure (SMILES): Cc1nc2c(=O)[nH]c(=S)[nH]c2nc1O
- AC50 (Caspase-6): 6.58 µM (active)
- AC50 [13]: 16.2 µM (active)

Structure (SMILES): C[C@@H]1CN([C@H](C)CO)C(=O)c2cc(NS(=O)(=O)c3cccs3)ccc2O[C@@H](C)CCCCO[C@H]1CN(C)Cc1ccc(Cl)c(Cl)c1
- AC50 (Paired box protein Pax-8): 9.2 µM (active)
- AC50 [17]: 46.5 µM (active)
